Assay results reported in patent publication US20110208153A1, “FORMULATIONS AND METHODS FOR NUTRIENT DELIVERY” (priority 2010, published 2011).

System: pre-retinal neovascularization
Assay: pre-retinal neovascularization in the OIR mouse model following gavage treatments
Assay type: in vivo
Conditions: for pre-retinal neovascularization relative to vehicle control: P<0.05
From the text: FIG. 1 provides a graphical summary of the analysis of pre-retinal neovascularization levels in the mouse model following gavage treatments. The numbers in brackets in the legend refer to gavage doses in g/kg bodyweight/day. An * indicates P-values<0.05.

| Molecule | pre-retinal neovascularization relative to vehicle control (2.5 g/kg body weight/day) [%] | effect on pre-retinal neovascularization (in words) | pre-retinal neovascularization relative to vehicle control (5 g/kg of body weight/day) [%] |
| --- | --- | --- | --- |
| CC/C=C\C/C=C\C/C=C\C/C=C\C/C=C\C/C=C\CCC(=O)O [DHA, docosahexaenoic acid] | 49±4 |  |  |
| arginyl-glutamine dipeptide [Arg-Gln dipeptide] |  | dose-dependent reduction | 39±6 |
